Source: ChEMBL document CHEMBL3991601, “The target landscape of clinical kinase drugs” (Science, 2017)
Activity calls are given as the source filed them. Cut-off read from the data, not from the text of the source, for most assays here: actives have a measured Kd and inactives only a lower limit.

Key:
[1] = target: Mitogen-activated protein kinase 1 (Homo sapiens, UniProt P28482)
[2] = target: T1, RNA cytidine acetyltransferase (Homo sapiens, UniProt Q9H0A0)
T1 sequence (Q9H0A0 whole entry): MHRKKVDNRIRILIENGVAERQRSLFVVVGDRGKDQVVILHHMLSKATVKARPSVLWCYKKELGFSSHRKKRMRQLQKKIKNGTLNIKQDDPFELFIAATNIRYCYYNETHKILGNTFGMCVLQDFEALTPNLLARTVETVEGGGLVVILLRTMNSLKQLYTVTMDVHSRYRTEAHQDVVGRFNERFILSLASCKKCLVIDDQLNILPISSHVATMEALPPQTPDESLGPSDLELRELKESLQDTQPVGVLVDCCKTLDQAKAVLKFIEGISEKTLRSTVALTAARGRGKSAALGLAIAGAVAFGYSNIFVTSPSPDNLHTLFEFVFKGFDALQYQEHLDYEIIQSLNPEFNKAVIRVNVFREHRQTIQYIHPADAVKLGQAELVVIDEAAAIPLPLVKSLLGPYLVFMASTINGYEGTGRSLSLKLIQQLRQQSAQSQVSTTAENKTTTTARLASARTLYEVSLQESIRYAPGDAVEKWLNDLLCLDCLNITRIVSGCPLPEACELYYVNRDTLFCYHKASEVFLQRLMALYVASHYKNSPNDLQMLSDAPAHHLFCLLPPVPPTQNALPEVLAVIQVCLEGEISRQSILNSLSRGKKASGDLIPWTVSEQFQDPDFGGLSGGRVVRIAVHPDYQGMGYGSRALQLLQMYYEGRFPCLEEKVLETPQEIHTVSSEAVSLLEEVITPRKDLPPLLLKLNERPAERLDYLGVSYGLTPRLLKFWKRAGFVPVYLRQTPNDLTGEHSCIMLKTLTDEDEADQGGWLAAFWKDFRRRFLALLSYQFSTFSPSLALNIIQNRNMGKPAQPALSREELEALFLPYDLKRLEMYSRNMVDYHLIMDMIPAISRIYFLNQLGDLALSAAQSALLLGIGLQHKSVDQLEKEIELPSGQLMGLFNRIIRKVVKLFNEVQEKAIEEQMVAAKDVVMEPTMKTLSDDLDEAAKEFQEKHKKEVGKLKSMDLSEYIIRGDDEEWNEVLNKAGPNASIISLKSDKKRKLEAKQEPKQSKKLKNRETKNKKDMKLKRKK

[3] = target: T2, Exosome RNA helicase MTR4 (Homo sapiens, UniProt P42285)
T2 sequence (P42285 whole entry): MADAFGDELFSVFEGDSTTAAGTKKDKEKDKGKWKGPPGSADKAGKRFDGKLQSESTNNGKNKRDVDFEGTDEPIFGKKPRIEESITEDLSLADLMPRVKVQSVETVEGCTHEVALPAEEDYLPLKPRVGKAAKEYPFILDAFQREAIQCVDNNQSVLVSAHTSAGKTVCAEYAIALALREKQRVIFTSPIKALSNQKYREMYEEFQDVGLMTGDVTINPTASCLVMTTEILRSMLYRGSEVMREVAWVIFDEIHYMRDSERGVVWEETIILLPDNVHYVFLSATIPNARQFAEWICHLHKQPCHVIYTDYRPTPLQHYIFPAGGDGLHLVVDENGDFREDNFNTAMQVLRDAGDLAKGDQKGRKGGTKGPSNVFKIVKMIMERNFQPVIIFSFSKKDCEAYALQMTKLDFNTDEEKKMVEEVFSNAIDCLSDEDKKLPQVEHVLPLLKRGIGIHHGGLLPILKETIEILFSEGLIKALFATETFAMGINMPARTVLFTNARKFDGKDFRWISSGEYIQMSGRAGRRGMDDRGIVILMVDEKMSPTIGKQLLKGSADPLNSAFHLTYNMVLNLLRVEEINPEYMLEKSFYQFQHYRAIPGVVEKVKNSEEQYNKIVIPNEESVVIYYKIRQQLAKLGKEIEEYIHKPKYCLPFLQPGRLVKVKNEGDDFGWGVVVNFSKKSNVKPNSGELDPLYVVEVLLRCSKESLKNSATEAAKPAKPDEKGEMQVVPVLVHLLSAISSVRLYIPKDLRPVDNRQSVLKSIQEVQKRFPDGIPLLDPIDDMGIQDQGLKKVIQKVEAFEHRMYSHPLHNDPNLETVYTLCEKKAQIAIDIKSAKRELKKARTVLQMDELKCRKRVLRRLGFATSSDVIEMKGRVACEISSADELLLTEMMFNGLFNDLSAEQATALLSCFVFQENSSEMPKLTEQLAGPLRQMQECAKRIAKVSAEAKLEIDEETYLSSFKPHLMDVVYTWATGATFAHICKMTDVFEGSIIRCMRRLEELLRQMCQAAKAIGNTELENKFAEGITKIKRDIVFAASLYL

[4] = target: Dual specificity protein kinase CLK1 (Homo sapiens, UniProt P49759)
[5] = target: Mitogen-activated protein kinase kinase kinase kinase 4 (Homo sapiens, UniProt O95819)
[6] = target: Tyrosine-protein kinase Lyn (Homo sapiens, UniProt P07948)
[7] = target: Mitogen-activated protein kinase kinase kinase 1 (Homo sapiens, UniProt Q13233)
[8] = target: 5'-AMP-activated protein kinase catalytic subunit alpha-1 (Homo sapiens, UniProt Q13131)
Note: in the data inactive means no Kd found up to 30 µM.

Chain of Mitogen-activated protein kinase kinase kinase kinase 4 (O95819 whole entry): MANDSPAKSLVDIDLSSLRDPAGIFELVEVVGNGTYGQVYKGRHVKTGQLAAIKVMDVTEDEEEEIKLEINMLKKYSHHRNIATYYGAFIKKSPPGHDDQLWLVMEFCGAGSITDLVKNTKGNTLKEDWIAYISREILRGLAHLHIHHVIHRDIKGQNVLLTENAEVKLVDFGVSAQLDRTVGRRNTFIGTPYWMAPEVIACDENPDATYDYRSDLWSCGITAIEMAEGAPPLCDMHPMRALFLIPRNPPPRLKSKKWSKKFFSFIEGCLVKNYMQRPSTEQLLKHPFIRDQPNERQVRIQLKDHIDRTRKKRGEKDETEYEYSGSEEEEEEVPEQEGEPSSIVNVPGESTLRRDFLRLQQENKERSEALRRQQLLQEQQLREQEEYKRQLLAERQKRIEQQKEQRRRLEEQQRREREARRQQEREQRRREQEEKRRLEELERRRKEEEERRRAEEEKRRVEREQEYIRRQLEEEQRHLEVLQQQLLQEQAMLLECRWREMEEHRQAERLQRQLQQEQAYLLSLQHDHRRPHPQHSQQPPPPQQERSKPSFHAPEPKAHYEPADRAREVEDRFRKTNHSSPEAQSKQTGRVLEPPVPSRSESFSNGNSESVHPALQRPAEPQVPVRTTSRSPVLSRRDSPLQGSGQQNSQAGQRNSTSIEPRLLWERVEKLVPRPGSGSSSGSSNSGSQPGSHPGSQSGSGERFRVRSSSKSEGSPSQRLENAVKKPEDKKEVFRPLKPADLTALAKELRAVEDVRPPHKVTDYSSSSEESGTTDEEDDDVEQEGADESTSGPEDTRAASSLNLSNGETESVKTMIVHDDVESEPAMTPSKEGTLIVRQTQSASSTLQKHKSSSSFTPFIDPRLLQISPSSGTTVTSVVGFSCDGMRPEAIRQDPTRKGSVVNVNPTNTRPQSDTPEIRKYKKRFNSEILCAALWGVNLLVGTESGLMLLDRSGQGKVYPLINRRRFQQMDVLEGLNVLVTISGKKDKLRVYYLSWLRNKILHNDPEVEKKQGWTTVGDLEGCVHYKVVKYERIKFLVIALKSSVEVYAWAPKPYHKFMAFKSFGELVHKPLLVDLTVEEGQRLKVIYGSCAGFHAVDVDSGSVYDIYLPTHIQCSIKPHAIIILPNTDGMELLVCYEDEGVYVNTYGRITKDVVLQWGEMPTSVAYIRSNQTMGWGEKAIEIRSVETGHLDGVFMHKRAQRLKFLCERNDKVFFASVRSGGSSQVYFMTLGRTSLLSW
Chain of Tyrosine-protein kinase Lyn (P07948 whole entry): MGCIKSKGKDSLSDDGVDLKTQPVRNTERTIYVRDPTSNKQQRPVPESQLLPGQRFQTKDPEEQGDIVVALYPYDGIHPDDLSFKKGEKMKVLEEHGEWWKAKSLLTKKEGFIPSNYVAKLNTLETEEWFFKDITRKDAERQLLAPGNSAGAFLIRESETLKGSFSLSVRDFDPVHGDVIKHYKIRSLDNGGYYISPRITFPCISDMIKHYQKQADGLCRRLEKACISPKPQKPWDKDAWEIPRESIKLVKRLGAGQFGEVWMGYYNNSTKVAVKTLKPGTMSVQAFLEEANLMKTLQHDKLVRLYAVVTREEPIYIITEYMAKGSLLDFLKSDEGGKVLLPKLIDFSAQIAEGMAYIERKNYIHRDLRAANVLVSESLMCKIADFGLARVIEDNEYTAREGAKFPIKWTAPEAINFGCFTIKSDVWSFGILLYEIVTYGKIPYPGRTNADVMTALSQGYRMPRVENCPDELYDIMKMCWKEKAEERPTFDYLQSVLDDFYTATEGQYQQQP
Chain of 5'-AMP-activated protein kinase catalytic subunit alpha-1 (Q13131 whole entry): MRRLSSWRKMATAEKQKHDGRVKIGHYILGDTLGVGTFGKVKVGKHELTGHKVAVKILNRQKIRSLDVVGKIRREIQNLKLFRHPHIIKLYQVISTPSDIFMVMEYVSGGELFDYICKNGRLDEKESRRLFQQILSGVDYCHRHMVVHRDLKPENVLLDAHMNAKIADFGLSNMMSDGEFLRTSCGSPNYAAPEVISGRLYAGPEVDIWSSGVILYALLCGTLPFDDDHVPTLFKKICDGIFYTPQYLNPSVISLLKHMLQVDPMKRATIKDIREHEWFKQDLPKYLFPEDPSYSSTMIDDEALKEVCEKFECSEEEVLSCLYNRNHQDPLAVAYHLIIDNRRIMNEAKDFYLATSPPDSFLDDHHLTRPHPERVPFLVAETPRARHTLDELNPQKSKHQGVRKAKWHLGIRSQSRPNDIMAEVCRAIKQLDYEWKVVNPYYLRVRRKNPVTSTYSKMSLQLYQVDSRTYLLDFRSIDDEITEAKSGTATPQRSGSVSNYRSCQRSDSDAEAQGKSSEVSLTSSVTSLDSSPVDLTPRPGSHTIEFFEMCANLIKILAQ
Chain of Mitogen-activated protein kinase 1 (P28482 whole entry): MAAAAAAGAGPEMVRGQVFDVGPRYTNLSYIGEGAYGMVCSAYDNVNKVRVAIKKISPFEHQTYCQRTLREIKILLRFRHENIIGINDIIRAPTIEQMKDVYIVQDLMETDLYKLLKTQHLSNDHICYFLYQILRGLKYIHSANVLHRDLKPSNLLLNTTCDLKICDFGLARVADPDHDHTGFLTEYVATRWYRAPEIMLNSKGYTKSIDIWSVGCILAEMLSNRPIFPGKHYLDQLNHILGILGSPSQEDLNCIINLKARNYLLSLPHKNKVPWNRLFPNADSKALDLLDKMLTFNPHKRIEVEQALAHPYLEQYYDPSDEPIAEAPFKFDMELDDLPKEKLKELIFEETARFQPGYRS
Chain of Mitogen-activated protein kinase kinase kinase 1 (Q13233 whole entry): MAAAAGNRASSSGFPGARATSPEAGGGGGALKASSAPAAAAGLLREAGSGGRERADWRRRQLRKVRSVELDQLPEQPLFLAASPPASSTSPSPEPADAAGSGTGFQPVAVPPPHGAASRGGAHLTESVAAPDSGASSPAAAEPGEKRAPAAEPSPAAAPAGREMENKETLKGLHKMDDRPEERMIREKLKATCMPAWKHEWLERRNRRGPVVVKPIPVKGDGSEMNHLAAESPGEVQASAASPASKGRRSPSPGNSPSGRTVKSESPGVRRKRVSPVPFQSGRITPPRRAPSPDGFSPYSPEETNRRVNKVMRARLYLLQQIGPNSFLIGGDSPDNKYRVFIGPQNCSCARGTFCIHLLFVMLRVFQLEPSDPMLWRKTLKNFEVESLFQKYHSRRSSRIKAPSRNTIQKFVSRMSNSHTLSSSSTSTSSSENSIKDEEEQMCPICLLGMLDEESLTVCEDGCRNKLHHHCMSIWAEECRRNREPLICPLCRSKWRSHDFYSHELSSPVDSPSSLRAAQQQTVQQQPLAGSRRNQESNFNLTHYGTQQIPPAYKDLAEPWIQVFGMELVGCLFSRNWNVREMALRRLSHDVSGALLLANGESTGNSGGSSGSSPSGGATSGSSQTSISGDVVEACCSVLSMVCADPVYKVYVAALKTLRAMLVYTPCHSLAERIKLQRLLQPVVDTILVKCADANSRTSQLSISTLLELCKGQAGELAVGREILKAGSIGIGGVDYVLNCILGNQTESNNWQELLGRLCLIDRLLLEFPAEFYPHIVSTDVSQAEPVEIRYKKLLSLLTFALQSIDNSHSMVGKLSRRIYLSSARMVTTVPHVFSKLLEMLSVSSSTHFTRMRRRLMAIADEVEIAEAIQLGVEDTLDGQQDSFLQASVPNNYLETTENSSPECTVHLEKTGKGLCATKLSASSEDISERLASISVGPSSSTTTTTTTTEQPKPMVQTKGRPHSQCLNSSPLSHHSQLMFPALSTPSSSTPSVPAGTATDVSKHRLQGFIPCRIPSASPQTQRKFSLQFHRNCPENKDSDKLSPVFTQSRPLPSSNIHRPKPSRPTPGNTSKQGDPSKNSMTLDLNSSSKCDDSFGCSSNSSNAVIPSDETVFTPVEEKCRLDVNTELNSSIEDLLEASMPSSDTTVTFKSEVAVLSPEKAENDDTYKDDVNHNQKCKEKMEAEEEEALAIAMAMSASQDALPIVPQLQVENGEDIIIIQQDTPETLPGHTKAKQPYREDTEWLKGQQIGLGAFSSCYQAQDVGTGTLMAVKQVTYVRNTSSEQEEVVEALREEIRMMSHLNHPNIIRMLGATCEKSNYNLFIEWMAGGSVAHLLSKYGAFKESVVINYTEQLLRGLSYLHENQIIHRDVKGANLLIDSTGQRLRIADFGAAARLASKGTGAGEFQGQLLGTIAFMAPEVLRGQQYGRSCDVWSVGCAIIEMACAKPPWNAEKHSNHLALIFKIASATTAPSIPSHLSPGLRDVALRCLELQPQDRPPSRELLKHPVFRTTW
Chain of Dual specificity protein kinase CLK1 (P49759 whole entry): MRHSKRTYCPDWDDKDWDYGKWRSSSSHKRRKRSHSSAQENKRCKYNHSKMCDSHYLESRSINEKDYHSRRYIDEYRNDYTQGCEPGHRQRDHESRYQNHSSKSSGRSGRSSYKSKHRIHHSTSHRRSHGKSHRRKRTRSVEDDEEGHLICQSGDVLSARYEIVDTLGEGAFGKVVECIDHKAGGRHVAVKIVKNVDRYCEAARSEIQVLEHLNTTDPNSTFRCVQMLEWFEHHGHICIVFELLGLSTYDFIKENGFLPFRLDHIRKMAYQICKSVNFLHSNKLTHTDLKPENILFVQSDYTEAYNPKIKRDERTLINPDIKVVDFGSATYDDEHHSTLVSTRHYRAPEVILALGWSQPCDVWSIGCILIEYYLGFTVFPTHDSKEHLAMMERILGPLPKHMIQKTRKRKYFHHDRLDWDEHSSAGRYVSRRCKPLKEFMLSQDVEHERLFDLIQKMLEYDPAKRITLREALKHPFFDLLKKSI

Row | Compound | Kd [1] | Kd [2] | Kd [3] | Kd [4] | Kd [5] | Kd [6] | Kd [7] | Kd [8]
1 | C=CC(=O)N1CCC(Oc2cc3c(Nc4ccc(Cl)c(Cl)c4F)ncnc3cc2OC)CC1 [POZIOTINIB] | > 30 µM (inactive) | > 30 µM (inactive) | > 30 µM (inactive) | > 30 µM (inactive) | > 30 µM (inactive) | > 30 µM (inactive) | > 30 µM (inactive) | > 30 µM (inactive)
2 | COc1cc(N2CCC(N3CCN(C)CC3)CC2)ccc1Nc1ncnc(Nc2ccccc2S(=O)(=O)C(C)C)n1 [ASP-3026] | > 30 µM (inactive) | > 30 µM (inactive) | > 30 µM (inactive) | > 30 µM (inactive) | > 30 µM (inactive) | > 30 µM (inactive) | > 30 µM (inactive) | > 30 µM (inactive)
3 | CN1CC[C@@H](c2c(O)cc(O)c3c(=O)cc(-c4ccccc4Cl)oc23)[C@@H]1CO | > 30 µM (inactive) | > 30 µM (inactive) | > 30 µM (inactive) | > 30 µM (inactive) | > 30 µM (inactive) | > 30 µM (inactive) | > 30 µM (inactive) | > 30 µM (inactive)
4 | CN1CCC(CNc2ccc3ncc(-c4cccc(OC(F)(F)F)c4)n3n2)CC1 [SGI-1776] | > 30 µM (inactive) | > 30 µM (inactive) | > 30 µM (inactive) | > 30 µM (inactive) | > 30 µM (inactive) | > 30 µM (inactive) | > 30 µM (inactive) | > 30 µM (inactive)
5 | O=c1sn(-c2cccc3ccccc23)c(=O)n1Cc1ccccc1 [TIDEGLUSIB] | > 30 µM (inactive) | > 30 µM (inactive) | > 30 µM (inactive) | > 30 µM (inactive) | > 30 µM (inactive) | > 30 µM (inactive) | > 30 µM (inactive) | > 30 µM (inactive)
6 | C[C@@H](c1ccc2nccn2c1)n1nnc2ncc(-c3cnn(C)c3)nc21 [SAVOLITINIB] | > 30 µM (inactive) | > 30 µM (inactive) | > 30 µM (inactive) | > 30 µM (inactive) | > 30 µM (inactive) | > 30 µM (inactive) | > 30 µM (inactive) | > 30 µM (inactive)
7 | CN(C)C(=O)c1cc2cnc(Nc3ccc(N4CCNCC4)cn3)nc2n1C1CCCC1 [RIBOCICLIB] | > 30 µM (inactive) | > 30 µM (inactive) | > 30 µM (inactive) | > 30 µM (inactive) | > 30 µM (inactive) | > 30 µM (inactive) | 12.5 µM (active) | > 30 µM (inactive)
8 | COC(=O)N[C@@H](C)CNc1nccc(-c2cn(C(C)C)nc2-c2cc(Cl)cc(NS(C)(=O)=O)c2F)n1 [ENCORAFENIB] | > 30 µM (inactive) | > 30 µM (inactive) | > 30 µM (inactive) | > 30 µM (inactive) | > 30 µM (inactive) | > 30 µM (inactive) | > 30 µM (inactive) | > 30 µM (inactive)

Next, values leading:

Row | Kd [1] | Kd [2] | Kd [3] | Kd [4] | Kd [5] | Kd [6] | Kd [7] | Kd [8] | Compound
9 | > 30 µM (inactive) | > 30 µM (inactive) | > 30 µM (inactive) | > 30 µM (inactive) | > 30 µM (inactive) | > 30 µM (inactive) | > 30 µM (inactive) | > 30 µM (inactive) | Cc1ccc(S(=O)(=O)Nc2nc3ccccc3nc2Nc2ccc3nsnc3c2)cc1
10 | > 30 µM (inactive) | > 30 µM (inactive) | > 30 µM (inactive) | > 30 µM (inactive) | > 30 µM (inactive) | > 30 µM (inactive) | > 30 µM (inactive) | > 30 µM (inactive) | Cc1c(F)cc(C(=O)NC2CC2)cc1-c1ccc(C(=O)NCC(C)(C)C)cn1 [LOSMAPIMOD]
11 | > 30 µM (inactive) | > 30 µM (inactive) | > 30 µM (inactive) | > 30 µM (inactive) | > 30 µM (inactive) | > 30 µM (inactive) | > 30 µM (inactive) | > 30 µM (inactive) | CCn1c(=O)c(-c2cc[nH]n2)cc2c(C)nc(N)nc21 [VOXTALISIB]
12 | > 30 µM (inactive) | > 30 µM (inactive) | > 30 µM (inactive) | > 30 µM (inactive) | > 30 µM (inactive) | > 30 µM (inactive) | > 30 µM (inactive) | > 30 µM (inactive) | CC(=O)Nc1cccc(-n2c(=O)n(C3CC3)c(=O)c3c(Nc4ccc(I)cc4F)n(C)c(=O)c(C)c32)c1 [TRAMETINIB]
13 | > 30 µM (inactive) | > 30 µM (inactive) | > 30 µM (inactive) | > 30 µM (inactive) | 7.98 µM (active) | > 30 µM (inactive) | > 30 µM (inactive) | > 30 µM (inactive) | CCN1CCN(Cc2ccc(-c3cc4c(N[C@H](C)c5ccccc5)ncnc4[nH]3)cc2)CC1 [AEE-788]
14 | > 30 µM (inactive) | > 30 µM (inactive) | > 30 µM (inactive) | 0.025 µM (active) | > 30 µM (inactive) | > 30 µM (inactive) | > 30 µM (inactive) | > 30 µM (inactive) | O=C1NC(=O)/C(=C/c2ccc3nccc(-c4ccncc4)c3c2)S1 [GSK-1059615]
15 | > 30 µM (inactive) | > 30 µM (inactive) | > 30 µM (inactive) | > 30 µM (inactive) | > 30 µM (inactive) | > 30 µM (inactive) | > 30 µM (inactive) | > 30 µM (inactive) | COc1cc(OC)c(/C=C/S(=O)(=O)Cc2ccc(OC)c(NCC(=O)O)c2)c(OC)c1 [RIGOSERTIB]
16 | > 30 µM (inactive) | > 30 µM (inactive) | > 30 µM (inactive) | > 30 µM (inactive) | > 30 µM (inactive) | > 30 µM (inactive) | > 30 µM (inactive) | > 30 µM (inactive) | CC[C@H](Nc1ncnc2[nH]cnc12)c1nc2cccc(F)c2c(=O)n1-c1ccccc1 [IDELALISIB]
17 | > 30 µM (inactive) | > 30 µM (inactive) | > 30 µM (inactive) | 0.138 µM | 0.293 µM (active) | > 30 µM (inactive) | > 30 µM (inactive) | > 30 µM (inactive) | C1=C/COCc2cc(ccc2OCCN2CCCC2)Nc2nccc(n2)-c2cccc(c2)COC/1 [PACRITINIB]
18 | > 30 µM (inactive) | > 30 µM (inactive) | > 30 µM (inactive) | > 30 µM (inactive) | > 30 µM (inactive) | > 30 µM (inactive) | > 30 µM (inactive) | > 30 µM (inactive) | Cn1cc(-c2ccc3nnc(C(F)(F)c4ccc5ncccc5c4)n3n2)cn1 [JNJ-38877605]
19 | > 30 µM (inactive) | > 30 µM (inactive) | > 30 µM (inactive) | > 30 µM (inactive) | > 30 µM (inactive) | 2.48 µM (active) | > 30 µM (inactive) | > 30 µM (inactive) | CNC(=O)CN1CCC(Oc2cc3c(Nc4cccc(Cl)c4F)ncnc3cc2OC)CC1 [SAPITINIB]
